Reference: US20130197088A1, “Compositions and Methods for Combinations of Oligoamines with 2-Difluoromethylornithine (DFMO)” (priority 2010, published 2013)
Entries after “also recorded” stand apart in the source; their conditions may differ.

Columns and labels:
ODC [1] = biological target: T1, ODC (Homo sapiens, UniProt P11926); settings: concentrations from 0.6 μM to 80 μM; cited from earlier work
T1 sequence (P11926 1-461): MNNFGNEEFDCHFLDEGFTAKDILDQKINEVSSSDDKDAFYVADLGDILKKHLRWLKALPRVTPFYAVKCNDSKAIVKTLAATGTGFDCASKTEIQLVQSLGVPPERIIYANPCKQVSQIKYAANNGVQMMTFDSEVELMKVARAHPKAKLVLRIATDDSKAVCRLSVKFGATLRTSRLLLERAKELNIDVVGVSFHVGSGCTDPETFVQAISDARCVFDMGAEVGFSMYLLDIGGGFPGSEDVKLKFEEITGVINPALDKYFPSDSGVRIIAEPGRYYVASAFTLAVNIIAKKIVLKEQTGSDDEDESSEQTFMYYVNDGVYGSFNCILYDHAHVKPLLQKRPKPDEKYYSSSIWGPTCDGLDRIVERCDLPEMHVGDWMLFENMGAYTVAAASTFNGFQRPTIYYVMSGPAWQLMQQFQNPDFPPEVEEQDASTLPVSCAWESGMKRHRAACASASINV

[2] = guinea pigs; cited from earlier work
ODC [3] = biological target: T1, ODC; assay: Inhibition of ODC activity by DFMO enantiomers; format: biochemical
Experimental: The use of D-DFMO or enriched D-isomer mixtures can overcome many of the problems associated with the use of racemic (50/50) D,L-DFMO. D-DFMO or enriched D-DFMO isomer mixtures may be administered at a dosage higher than a racemic mixture, due to lower anticipated toxicity associated with the D enantiomer. In three separate studies using concentrations from 0.6 μM to 80 μM D-, L-, and D,L-DFMO, the effective concentration level of each which inhibits 50% of the ODC activity (Ki) can be determined. Both enantiomers, as well as the racemic mixture, were inhibitory.

HCT116 cells = assay: Intracellular polyamine pools by high pressure liquid chromatography after DFMO / PG-11144 treatment; format: cell-based, human
Experimental: DFMO (2- or α-difluoromethylornithine) can be obtained from Merrell Dow Pharmaceutical Inc. (Cincinnati, Ohio). Polyamine analogues are provided by Progen Pharmaceuticals Ltd. (Queensland, Australia). Stock solutions of each compound are diluted with medium to the desired concentrations for specific experiments. HCT116 colorectal carcinoma cells are maintained in McCoy's 5A medium supplemented with 9% FBS (Atlanta Biologicals, Lawrenceville, Ga.) and 1% penicillin/streptomycin (Mediatech, Manassas, Va.), and grown at 37° C. in 5% CO2 atmosphere. For experiments, HCT116 cells are first treated for 24 hours with 5 mM DFMO followed by another 24 hours treatment of replenished 5 mM DFMO and polyamine analogues in the indicated doses alone or simultaneously. Intracellular polyamine concentrations are determined by high pressure liquid chromatography.
A mixture of both D-enantiomer of DFMO and L-enantiomer of DFMO is used to generate data in Table 1.

[4] = system: six human tumors (three mammary carcinomas, a malignant melanoma, a bladder carcinoma, an endocervical carcinoma); settings: after DFMO treatment; cited from earlier work
[5] = system: colon adenomas and carcinomas; settings: animal models of colon carcinogenesis; cited from earlier work
SFRP2 in HCT116 cells = assay: Re-expression of aberrantly silenced SFRP2, qPCR; format: cell-based, human
Experimental: HCT116 cells are first treated for 24 hour with 5 mM DFMO followed by another 24 hour treatment of replenished 5 mM DFMO and oligoamines (PG-11144 and PG-11150 for panel A, PG-11157, PG 11158 and PG-11159 for panel B) alone or simultaneously. RNA is extracted using TRIzol reagents and first-strand cDNA is synthesized using M-MLV reverse transcriptase with an oligo(dT) primer (Invitrogen). qPCR for SFRP2 is performed in a MyiQ single color real-time PCR machine with GAPDH as an internal control. The SFRP2 primers used for qPCR are: sense, 5′ AAGCCTGCAAAAATAAAAATGATG (SEQ ID NO: 1); antisense, 5′ TGTAAATGGTCTTGCTCTTGGTCT (SEQ ID NO: 2) (annealing at 53° C.). The quantified results are the mean of triplicate treatments. The transcript level for control samples was set to a value of 1. S.D. is indicated by the error bars.
HCT116 cells are first treated for 24 hours with 5 mM DFMO followed by another 24 hours treatment of replenished 5 mM DFMO and PG-11144 in the indicated doses alone or simultaneously. RNA isolation and qPCR are performed. The quantified results are the means of triplicate treatments with S.D. as indicated. The transcript level for control samples is set to a value of 1.
RNA Isolation and qPCR: RNA is extracted using TRIzol reagents (Invitrogen, Carlsbad, Calif.). First-strand cDNA is synthesized using M-MLV reverse transcriptase with an oligo(dT) primer (Invitrogen). qPCR is performed in a MyiQ single color real-time PCR machine (Bio-Rad, Hercules, Calif.) with GAPDH as an internal control. The SFRP2 primers used are: sense, 5′ AAGCCTGCAAAAATAAAAATGATG (SEQ ID NO: 1); antisense, 5′ TGTAAATGGTCTTGCTCTTGGTCT (SEQ ID NO: 2) (annealing at 53° C.).

[6] = system: H3K4me2 at the promoter of SFRP2 in HCT116 cells; assay: ChIP analysis of H3K4me2 at the SFRP2 promoter; format: cell-based, human; settings: 2.5 μM PG-11144 alone
Experimental: HCT116 cells are first treated for 24 hours with 5 mM DFMO followed by another 24 hours treatment of replenished 5 mM DFMO and 2.5 μM PG-11144 alone or simultaneously. Chromatin immunoprecipitation (CHIP) analysis is performed using EZ-chip kit (Millipore). In brief, cells are exposed to 1% formaldehyde to cross-link proteins, and two million cells are used for each CHIP assay. Antibodies against H3K4me2, and for control, H3 are used as indicated for immunoprecipitation of protein-DNA complexes. Quantitative ChIP is performed using qPCR on the MyiQ single color real-time PCR machine. The PCR primer sets used for amplification of precipitated SFRP2 promoter fragments are as follows: sense, 5′ CTCCCTCCCAGCCTGCCCATCTT (SEQ ID NO: 3); antisense, 5′ ACTGCCCACCATTTCCCCGTTTTG (SEQ ID NO: 4) (annealing at 61° C.). The relative enrichment of H3K4me2 for control samples is set to a value of 1.
Chromatin Immunoprecipitation (ChIP): CHIP analysis is performed using EZ-chip kit (Millipore) according to the manufacturer's instruction. In brief, cells are exposed to 1% formaldehyde to cross-link proteins, and two million cells are used for each CHIP assay. Antibody against H3 can be obtained from Abeam (Cambridge, Mass.) and antibody against H3K4me2 can be obtained from Millipore. Quantitative ChIP is performed using qPCR on the MyiQ single color real-time PCR machine. […]

[7] = system: HCT116 human colon tumors; assay: Established tumors in nude mouse model; format: in vivo; settings: PG-11144 alone, nude mice
[8] = system: Egr1 and Oct4 genes in P19 embryonal carcinoma cells; settings: cited from earlier work

## NCCCC(N)(C(=O)O)C(F)F (racemic) [D,L-DFMO]
ODC [1]
  Inhibition of ODC activity: inhibitory

## NCCC[C@](N)(C(=O)O)C(F)F [L-DFMO]
ODC [1]
  Inhibition of ODC activity: inhibitory
[2]
  Effect on auditory function (compound action potential, cochlear microphonic, cochlear potentials): significant disruption of normal cochlear potentials

## NCCC[C@@](N)(C(=O)O)C(F)F [D-DFMO]
ODC [3]
  Ki of D-DFMO relative to the L-form: four fold lower
  Ki of D-DFMO relative to the mixture: 3 fold
ODC [1]
  Inhibition of ODC activity: inhibitory
[2]
  Effect on auditory function (compound action potential, cochlear microphonic, cochlear potentials): no significant effects

## NCCC[C@](N)(C(=O)O)C(F)F [DFMO, 2-difluoromethylornithine]
HCT116 cells; DFMO 5 mM alone
  Polyamines: Putresine: 0.0 nmol/mg Protein
  Polyamines: Spermidine: 0.0 nmol/mg Protein
  Polyamines: Spermine: 13.9 nmol/mg Protein
[4]
  Growth of human tumors compared to control mice: significantly decreased
[5]
  Number and size of colon adenomas and carcinomas: reduces the number and size of colon adenomas and carcinomas

## CCNCCCCNCCCCNCCCCNCCCCNCC=CCNCCCCNCCCCNCCCCNCCCCNCC (stereo in doubt) [PG-11144]
HCT116 cells; PG-11144 0.5 μM, 24 h
  Polyamines: Putresine: 4.7 nmol/mg Protein
  Polyamines: Spermidine: 9.1 nmol/mg Protein
  Polyamines: Spermine: 11.2 nmol/mg Protein
HCT116 cells; PG-11144 1 μM, 24 h
  Polyamines: Putresine: 4.7 nmol/mg Protein
  Polyamines: Spermidine: 8.4 nmol/mg Protein
  Polyamines: Spermine: 10.1 nmol/mg Protein
HCT116 cells; PG-11144 2.5 μM, 24 h
  Polyamines: Putresine: 3.8 nmol/mg Protein
  Polyamines: Spermidine: 5.6 nmol/mg Protein
  Polyamines: Spermine: 6.2 nmol/mg Protein
HCT116 cells; PG-11144 5 μM, 24 h
  Polyamines: Putresine: 0.0 nmol/mg Protein
  Polyamines: Spermidine: 4.2 nmol/mg Protein
  Polyamines: Spermine: 4.9 nmol/mg Protein
HCT116 cells; PG-11144 10 μM, 24 h
  Polyamines: Putresine: 0.0 nmol/mg Protein
  Polyamines: Spermidine: 4.1 nmol/mg Protein
  Polyamines: Spermine: 6.4 nmol/mg Protein
SFRP2 in HCT116 cells; 2.5 μM PG-11144 alone
  SFRP2 expression: does not lead to increased SFRP2 expression
SFRP2 in HCT116 cells; 5 μM PG-11144 with 5 mM DFMO
  SFRP2 re-expression, synergy with DFMO (dose response): greatest synergy with DFMO
SFRP2 in HCT116 cells; PG-11144 concentrations higher than 5 μM with 5 mM DFMO
  SFRP2 expression (dose response): less SFRP2 expression
[6]
  Promoter H3K4me2 levels (SFRP2 promoter, ChIP): does not lead to
[7]
  Antitumor activity on established tumors: effective in treating established tumors; also recorded: effective in shrinking established HCT116 human colon tumors

## N[C@@H]1C[C@H]1c1ccccc1 [tranylcypromine, (1R,2S)-2-phenylcyclopropan-1-amine]
[8]
  Effect on Egr1 and Oct4 gene transcription: transcriptional de-repression
